Read-outs that look alike come from different tables or passages of the source.
How the values were obtained:
[1] = pure solvent; cited from earlier work
[2] = Test 2 - Moisture retention (Karl Fischer titration); format: physicochemical
Method: Each solvent (5 g) was put into a small vial and the individual samples were titrated with a Karl Fischer titration machine to evaluate how much moisture was contained in each. De-ionized water (1 g) was then added to each vial, which ensured that each sample was saturated with moisture. The samples were then agitated and allowed to phase separate. Karl Fischer analysis of the organic layer of each solvent was performed after phase separation was complete.
The difference between the saturated moisture percent and the starting sample moisture percent is the amount that was absorbed by the solvent.

[3] = Test 3 - Acid retention (titration before and after concentrated HCl); format: physicochemical
Method: In order to measure the ability of each solvent to absorb acid, a titration of each solvent before and after concentrated HCl addition was performed. The difference between how much titrant was needed to neutralize the solvent after the addition of acid and the amount of titrant needed to neutralize the initial solvent was a simple way to determine how much acid was absorbed by each solvent. Mixture A advantageously absorbed more mineral acid than any of the three comparative solvents.

[4] = Test 4 - Oil retention (oil saturation point); format: physicochemical; settings: oil added to 4.5 g solvent until phase separation
Method: An oil absorption test was performed on Mixtures A, B, C, D and the three comparative solvents to see if there was a saturation point associated with any of the solvents. A 4.5 g sample of each solvent was put into a vial and oil was added to each until a phase separation or other noticeable fluid property change took place. […]. Rx-11 and oil phase separated after 0.45 g, or 10 mass % of oil were added.

[5] = cited from earlier work; for BP: Table 1
[6] = From the text: Parameters such as the lethal dose 50 (LD50), lethal concentration 50 (LC50), cardiac sensitization, skin irritation, and mutagenicity (e.g., via the Ames test) can be used as toxicity metrics. The LDn or LCn abbreviations, where n is the percent lethality, are used for the dose of a toxicant lethal to n % of a test population. […] Cardiac sensitization is a measure of the ability of a compound to cause cardiac arrhythmia under stress.
The property modification components are chosen from a list of potential replacement solvents. These compounds included halogenated compounds such as halogenated acetates, alcohols, alkanes, cycloalkanes, alkenes, cycloalkenes, amines, anhydrides, aromatics, carbonyls, diones, esters, ethers, heterocyclics and ketones.

[7] = solubility parameter, Table 1; cited from earlier work
[8] = cardiac sensitization relative to CFC-113

Row | Structure (SMILES) | flash point [1] | CS/CS113 [6, 8] | SP [7] | BP [5] | further results
1 | CC(C)CBr [1-bromo-2-methylpropane] | 11 °C |  |  |  | 
2 | FC(Cl)(Cl)Cl [CFC-11, trichlorofluoromethane] |  |  |  |  | Saturated % ([2]; moisture in organic layer after 1 g water added to 5 g solvent): 0.007%; Starting % ([2]; moisture in solvent before water addition): 0.000%; Acid Number after acid ([3]; after concentrated HCl addition): 18 mg/L; Acid Number before acid ([3]; before concentrated HCl addition): 9 mg/L; Acid Absorbed ([3]; difference after minus before acid): 9 mg/L; saturation point for oil [4]: no saturation point; boiling point [5]: 47.6 °C
3 | CCO [Ethanol, ethanol] | 55 ° F. |  |  |  | 
4 | C=C(C)[C@H]1CC=C(C)CC1 [d-limonene] | around 120 ° F. |  |  |  | 
5 | COCC(C)OCC(C)OC (stereo not drawn) [dipropyleneglycol dimethylether] | 149 ° F. |  |  |  | 
6 | CC(C)O [isopropyl alcohol] | 54 ° F. |  |  |  | 
7 | FC(F)(F)C(F)(F)C(F)(F)C(F)(F)C1(F)OC(F)(F)C(F)(F)C1(F)F (stereo not drawn) [perfluoro-2-butyltetrahydrofuran] |  | 65.4 | 6.94 (cal/cm^3)^1/2 | 103.0 C. | 
8 | FC(F)(F)C(F)(F)C(F)(F)C(F)(F)OC(F)(F)C(F)(F)C(F)(F)C(F)(F)F [perfluorodibutyl ether] |  | 896.2 | 6.65 (cal/cm^3)^1/2 | 110.1 C. | 
9 | Fc1c(F)c(F)c(C(F)(F)F)c(F)c1F [perfluorotoluene] |  | 64.0 | 7.70 (cal/cm^3)^1/2 | 104.0 C. | 
10 | O=C(OC(=O)C(F)(F)F)C(F)(F)F [trifluoroacetic anhydride] |  |  | 7.29 (cal/cm^3)^1/2 | 40.2 C. | CS/CS113 [6]: 236.9

Source: US7736537B1, “Replacement solvents having improved properties for refrigeration flushes” (Mainstream Engineering Corp., priority 2008, dated 2010)
